According to patent US20100331812A1, “Pharmaceutical Formulations for Iontophoretic Delivery of an Immunomodulator” (Nitric BioTherapeutics, Inc., priority 2009, published 2010):

Tests used:
[1] = Solubility of imiquimod in excipient formulation, by HPLC; assay type: physicochemical; settings: about 3 mg/mL imiquimod in about 30% w/w PEG 400, 10% w/w glycerin, 3% w/w polysorbate 80 at pH 4
Procedure: (§1) The effect of iontophoresis on the permeation profile of imiquimod across hairless rat skin in vitro was examined. The solubility of imiquimod was tested in various solvent matrices and a formulation with acceptable solubility was employed for further in vitro and in vivo studies as described herein. The following methods were performed.
Using the above methods, various excipients were tested to prepare a formulation with sufficient solubility for imiquimod.

[2] = cited from earlier work
[3] = In vitro permeation across hairless rat skin, Franz diffusion cells, with tape stripping and skin extraction; assay type: in vitro ADME; settings: for cumulative amount of drug permeated at 24 hr, passive: passive diffusion
Procedure: as §1
For the in vitro studies, Franz diffusion cells were employed. Hairless rats were euthanized by carbon dioxide asphyxiation and the abdominal skin area was excised and carefully cleaned to remove excess fat. The skin was then mounted onto Franz diffusion cells. Citrate buffer with 20% ethanol was employed as the receptor buffer and the drug formulation was placed in the donor chamber. For iontophoretic delivery, a silver/silver chloride electrode system was used. […] Samples were taken at predetermined time points and the receptor chamber was replenished with fresh receptor buffer accordingly. At completion, the skin samples were dismounted and washed with the receptor buffer to remove excess drug. Tape stripping and skin extraction studies were performed to quantify the amount of the drug in the skin. All the samples were analyzed via HPLC (C18 column; mobile phase: acetonitrile/50 mM ammonium acetate (70:30); injection volume: 10 μl UV detection at 250 nm).

[4] = In vivo skin depot quantification, 0.3% w/w imiquimod formulation
From the text: The effect of iontophoresis on its ability to enhance delivery of 0.3% w/w imiquimod (pH 4.0) formulation in vivo into the stratum corneum and the underlying skin (lower epidermis and dermis) was examined.
Hairless rats were anesthetized using Ketamine and Xylazine. An area on the abdomen was marked and cleaned. Drug formulation was loaded onto an iontophoretic drug cartridge and was secured on the area with tape. For iontophoretic delivery, the cartridge was connected to a current source and a TransQ iontophoretic patch (Iomed) served as the counter electrode. A current density of 0.2 mA/cm^2 was applied for 15 min. At the end of 15 min, the drug loaded cartridges were removed and excess drug on the site was removed. Tape stripping (3M Transpore™ tape) was performed to quantify the drug levels in the stratum corneum. Transepidermal water loss (TEWL) measurements were also taken to ensure the complete removal of the stratum corneum. The rats were then euthanized and the skin samples were excised for further analysis. A skin extraction assay was performed to quantify the drug levels in the underlying skin immediately after 15 min iontophoresis or passive.

[5] = Skin irritation or redness observed in the in vivo studies; set-up: species or system hairless rat; settings: any of the in vivo studies
Procedure: (§2) A topical delivery system containing 2% w/w drug formulation (consisting of 20% PEG 400, 10% propylene glycol, 20% Transcutol P, 3% Tween 80 and 10% glycerin; in w/w, final pH 3.6) was employed. The formulation was loaded into a cartridge and iontophoresis (0.2 mA/cm^2, 15 min) was used to deliver the drug into the skin using the hairless rat model as described herein. A passive delivery control was run for comparison. […] Transepidermal water loss (TEWL) measurements were taken to ensure the removal of the stratum corneum.

[6] = In vivo skin depot formation and desorption, 2% w/w imiquimod formulation with Transcutol P; set-up: species or system hairless rat
Procedure: In this example the formation and pharmacokinetics of an imiquimod skin depot following iontophoretic delivery in an in vivo hairless rat model were examined.
as §2

[7] = 0.3% w/w, 0.2 mA/cm^2 for 15 min
[8] = 0.3% w/w, pH 4.0, after about 15 min of treatment
[9] = in vivo, 2% w/w, 72 hrs after application

In the case of `CC(C)Cn1cnc2c(N)nc3ccccc3c21` [Imiquimod], the solubility level [1] is listed as “about 0.3%”, the “log P” value [2] is listed as 2.7 and the pKa [2] is listed as 7.3. The “cumulative amount of drug permeated at 24 hours, iontophoresis” value ([3]; 0.3% w/w formulation, 0.2 mA/cm^2 for 15 min, then passive diffusion to 24 hr) was 22.41 μg/cm^2, the permeation following iontophoresis ([3]; 0.3% w/w formulation, iontophoresis for 15 min, end of 24 hr) was “approximately 22 pg/cm” and the “cumulative amount of drug permeated at 24 hr, passive” value ([3]; 0.3% w/w formulation) was 2.24 μg/cm^2. The “cumulative amount of drug permeated at 24 hr, passive” value ([3]; 0.3% w/w formulation, listed as imiquimod) was “approximately 2 μg/cm^2”, the “amount of drug in the underlying skin, iontophoretic” value ([3]; in vitro, 0.2 mA/cm^2 15 min, end of 24 hr study, skin extraction) was 6.31 µg and the “amount of drug in the stratum corneum, iontophoretic” value ([3]; in vitro, 0.2 mA/cm^2 15 min, end of 24 hr study, tape stripping) was 7.53 µg. For the same compound, the “amount of drug in the underlying skin, passive” value ([3]; in vitro, end of 24 hr study, skin extraction) was 6.27 µg, the “amount of drug in the stratum corneum, passive” value ([3]; in vitro, end of 24 hr study, tape stripping) was 1.31 µg and the “drug in the stratum corneum, iontophoresis” value [4, 7] was 11.91 µg. The “drug in the underlying tissue, iontophoresis” value [4, 7] was 0.591 µg, the “drug detection in the stratum corneum at 72 hr, iontophoresis” value ([4]; 0.3% w/w, 72 hr from treatment) was “still detected” and the “drug detection in the stratum corneum at 72 hr, passive” value ([4]; 0.3% w/w, 72 hr from treatment) was “no drug was detected”. For the same compound, the “drug detection in the underlying skin at 72 hr, iontophoresis” value ([4]; 0.3% w/w, 72 hr from treatment) was “still detected”, the “drug in the underlying tissue at 72 hr, passive” value ([4]; 0.3% w/w, 72 hr from treatment) was “small amount of drug was also present” and the “drug level in the stratum corneum, iontophoresis vs passive” value ([4]; 0.3% w/w, after 15 min of treatment) was 10 fold. The “drug in the stratum corneum, passive” value [4, 8] was 1.07 µg, the “drug in the underlying skin, passive” value [4, 8] was 0.40 µg and the “residence time of the depot in the stratum corneum after iontophoresis” value ([4]; iontophoresis) was “more than 72 hr”. For the same compound, the “irritation or redness of the skin” value [5] was “not observed”, the “imiquimod delivered to the skin” value ([6]; 15 min iontophoresis at 0.2 mA/cm^2) was “approximately 14 ug” and the “total skin drug level, iontophoretic delivery, after 15 min” value ([6]; in vivo, 2% w/w, pH 3.6, 0.2 mA/cm^2, 15 min) was 14.19 ± 2.07 µg. The “total skin drug level, passive delivery, after 15 min” value ([6]; in vivo, 2% w/w, pH 3.6, passive, 15 min) was 3.26 ± 0.63 µg, the “drug detection in the stratum corneum at 72 hrs, iontophoretic” value ([6]; in vivo, 2% w/w, 72 hrs) was “still detected” and the “drug detection in the underlying skin at 72 hrs, iontophoretic” value ([6]; in vivo, 2% w/w, 72 hrs) was “No drug was detected”. For the same compound, the “drug detection in the underlying skin at 72 hrs, passive” value ([6]; in vivo, 2% w/w, 72 hrs) was “No drug was detected”, the “total skin drug level, iontophoretic delivery, at 72 hrs” value [6, 9] was 5.50 ± 2.76 µg and the “total skin drug level, passive delivery, at 72 hrs” value [6, 9] was 1.96 ± 0.37 µg.
